Earlier results as cited in patent US12673027B2, “Method for the production of commercial nanoparticle and microparticle powders” (ICEUTICA PTY LTD., priority 2009, dated 2026).

Settings: absorption by the body

With `Cc1cnc(NC(=O)C2=C(O)c3ccccc3S(=O)(=O)N2C)s1` [Meloxicam] as the compound, how does the Tmax read?
The Tmax was 4 to 5 h.
